The values below come from publication PMC5062470, “The mGluR2 positive allosteric modulator, SAR218645, improves memory and attention deficits in translational models of cognitive symptoms associated with schizophrenia” (Scientific Reports, 2016).

In one assay the test system is mice. Details: method as in earlier work. The following applies: wide dose-range; cited from earlier work.
Assay [1] deals with Sprague-Dawley rats. The experiment in a line: Amphetamine-induced disruption of auditory evoked potentials (AEP). The assay is classed as in vivo. From the text:
All recordings were made using Spike2 software (Cambridge Electronic Design, Cambridge, UK) running on a Windows PC connected to a 1401 interface (Cambridge Electronic Design, Cambridge, UK). EEG recordings were created by connecting the skull plug to an amplifying head stage (AI 1401, Axon Instruments, Union City, CA, USA), via a 6-channel commutator and cable (Plastics One, Roanoke, VA, USA). The signal was then further amplified with a multichannel amplifier (Cyberamp 380, Axon Instruments, Union City, CA, USA). Auditory stimuli were controlled by the interface via an eight channel power amplifier (SA8, Tucker Davis Technologies, Alachua, FL) connected to a patch panel (PP16, Tucker Davis Technologies), which was connected to speakers located above each cage (TDT Magnetic Speakers, Tucker Davis Technologies). During recording sessions, animals were placed inside standard mouse cages (30 × 15 × 15 cm) and rigged so that the six channel cables could connect with the rest of the apparatus outside of the cage.
Male Sprague-Dawley rats (150–180 g at arrival) were anesthetized with 3% isoflurane and their scalp was shaved and prepared for surgery. An incision was made in the scalp and the skin was retracted to allow direct contact with the skull surface. The skull was cleaned with a dry Q-tip and five holes were drilled through the skull. Three holes were drilled at coordinates AP + 1 mm, ML + 1 mm (reference); AP−4 mm, ML ± 4 mm (leads 1 and 2) relative to bregma, while an additional hole was drilled in the frontal area (ground) and another hole was drilled at the midpoint between the anterior and posterior coordinate (anchor). […]
AEP data analysis: Data were collected and analyzed using Spike2 software (CED Software, Cambridge, UK). […] Then a horizontal cursor was placed at the highest and lowest (peak and trough) point of the P1/N1 wave, for both the wave occurring to the first tone (S1) and to the second tone (S2), and the value was recorded into an Excel spreadsheet. […]

Assay [2] relates to Sprague-Dawley rats. Briefly: DOI-induced glutamate release in the medial prefrontal cortex (microdialysis). The assay is classed as in vivo. As for the experimental part:
Male Sprague-Dawley rats (320–350 g) were housed two per cage. Two days before the dialysis assay, they were anesthetized with chloral hydrate (400 mg/kg, ip, 10 ml/kg of body weight) and placed in a stereotaxic apparatus (David Kopf Instruments, Tujunga, CA, USA). Anesthesia was maintained throughout surgery as necessary with supplementary doses of chloral hydrate. Body temperature was monitored by a rectal probe and adjusted (37 ± 1 °C) by a homeothermic blanket. The skull and the dura were opened to allow the implantation of a guide cannula in the medial prefrontal cortex (PFC). The coordinates were […] to bregma, […] to the midline and […] the dural surface. A dental cement cap held the cannula in place, and three screws anchored the cap to the skull. The rats were individually housed post-surgery and allowed two days of recovery before the start of the experiment. On the day of the experiment, animals were placed in a microdialysis bowl, the cannula cap was removed, and a […] (CMA12, Carnegie Medicine AB, Stockholm, Sweden) was inserted into the guide cannula. The probe was perfused at a constant flow rate of 1 μl/min using a microinjection pump (CMA100; Carnegie Medicine AB) with a gassed Ringer’s solution containing (in mM): NaCl (145), KCl (2.7), CaCl2 (1.2), MgCl2 (1), Na2HPO4 (2.3), […]; pH 7.4. Microdialysis sampling started 120 min after probe placement into the PFC. The outlet of the probe was connected to an on-line derivatization system allowing direct analysis of dialysate samples collected every 15 min. […] CE experiments were performed on a P/ACE MDQ capillary electrophoresis system (Beckman Coulter, Villepinte, France) coupled to an external Zetalif fluorescence detector (Picometrics S.A., Toulouse, France). […] The emission intensity was measured at a wavelength of 490 nm. […] Dose-effect of SAR218645 was evaluated by comparing the area under the curve during the first 150 min after po injection of the drug or vehicle. […]

Take `CC1(C)CCc2cc(OC[C@@H]3Cn4ccc(=O)nc4O3)ccc21` [SAR218645, (S)-2-(1,1-dimethyl-indan-5-yloxymethyl)-2,3-dihydro-oxazolo[3,2-a]pyrimidin-7-one]: the “effect on the ability of haloperidol and risperidone to alleviate psychostimulant-induced hyperactivity” value with mice is on record as “did not alter”. In the assay on Sprague-Dawley rats [1] (0.3 and 3 mg/kg po, amphetamine 3 mg/kg), the “effect on amphetamine-disrupted auditory gating (S2/S1 ratio)” value is reported as “attenuated amphetamine-induced disrupted gating”. Further, the Minimal active dose in the assay on Sprague-Dawley rats [1] (dose-range 0.3–3, po, Sprague-Dawley rats) stood at 0.3 mg/kg; in the assay with Sprague-Dawley rats [2] (dose-range 0.3–30, po, Sprague-Dawley rats), 3 mg/kg. Besides, the “effect on DOI-induced increase in extracellular glutamate (time-course)” value with Sprague-Dawley rats [2] (3 mg/kg po, 30 min before DOI 2.5 mg/kg sc) is listed as “blocked significantly”. Besides, the “effect on glutamate AUC during 150 min” value with Sprague-Dawley rats [2] (30 mg/kg po, P < 0.05) was “reaching statistical significance”.
